From patent EP1534716B1, “HETEROBICYCLIC PYRAZOLE DERIVATIVES AS KINASE INHIBITORS” (priority 2002, dated 2004)
Counter-ions that a name gives are not always drawn.

Columns and labels:
Format in all cases: biochemical
Aurora-2 = target: T1, Aurora-2 (Homo sapiens, UniProt O14965); assay: Inhibition assay of Aurora-2 activity (SPA); settings: 10 µM ATP, 60 minutes at room temperature
T1 sequence (O14965 1-403): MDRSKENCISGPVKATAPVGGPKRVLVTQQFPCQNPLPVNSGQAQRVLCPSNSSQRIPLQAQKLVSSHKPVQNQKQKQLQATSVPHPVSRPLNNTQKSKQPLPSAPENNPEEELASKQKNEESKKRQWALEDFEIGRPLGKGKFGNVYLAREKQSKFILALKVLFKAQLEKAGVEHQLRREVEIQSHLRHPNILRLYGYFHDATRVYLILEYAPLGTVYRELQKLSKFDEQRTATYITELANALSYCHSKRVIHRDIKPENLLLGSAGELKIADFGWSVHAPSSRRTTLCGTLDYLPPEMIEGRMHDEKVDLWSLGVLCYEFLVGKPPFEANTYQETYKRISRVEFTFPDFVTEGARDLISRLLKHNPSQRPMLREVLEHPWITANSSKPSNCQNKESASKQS
Procedure: (§1) The inhibiting activity of putative cdk/cyclin inhibitors and the potency of selected compounds is determined through a method of assay based on the use of the SPA technology (Amersham Pharmacia Biotech).
(§2) The assay consists of the transfer of radioactivity labelled phosphate moiety by the kinase to a biotinylated substrate. The resulting 33P-labelled biotinylated product is allowed to bind to streptavidin-coated SPA beads (biotin capacity 130 pmol/mg), and light emitted was measured in a scintillation counter.
(§3) Experimental data were analyzed by the computer program GraphPad Prizm using the four parameter logistic equation: [formula] where x is the logarithm of the inhibitor concentration, y is the response; y starts at bottom and goes to top with a sigmoid shape.
Inhibition assay of Aurora-2 activity
After 60 minutes at room temperature incubation, reaction was stopped and biotinylated peptide captured by adding 100 µl of bead suspension.
Stratification: 100 µl of CsC12 5 M were added to each well and let stand 4 hour before radioactivity was counted in the Top-Count instrument.
IC50 determination: see above

Cdc7/dbf4 = Cdc7/dbf4 (Homo sapiens, UniProt O00311); assay: Inhibition assay of Cdc7/dbf4 activity (SPA); settings: 2 µM ATP, 60 minutes at 37°C
Procedure: Inhibition assay of Cdc7/dbf4 activity
The inhibition assay of Cdc7/dbf4 activity is performed according to the following protocol.
The Biotin-MCM2 substrate is trans-phosphorylated by the Cdc7/Dbf4 complex in the presence of ATP traced with γ^33-ATP. The phosphorylated Biotin-MCM2 substrate is then captured by Streptavidin-coated SPA beads and the extent of phosphorylation evaluated by β counting.
The inhibition assay of Cdc7/dbf4 activity was performed in 96 wells plate according to the following protocol.
To each well of the plate were added: • 10 µl substrate (biotinylated MCM2, 6 µM final concentration) • 10 µl enzyme (Cdc7/Dbf4, 17.9 nM final concentration) • 10 µl test compound (12 increasing concentrations in the nM to µM range to generate a dose-response curve) • 10 µl of a mixture of cold ATP (2 µM final concentration) and radioactive ATP (1/5000 molar ratio with cold ATP) was then used to start the reaction which was allowed to take place at 37°C.
Substrate, enzyme and ATP were diluted in 50 mM HEPES pH 7.9 containing 15 mM MgCl2, 2 mM DTT, 3 µM NaVO3, 2mM glycerophosphate and 0.2mg/ml BSA. The solvent for test compounds also contained 10% DMSO.
After incubation for 60 minutes, the reaction was stopped by adding to each well 100 µl of PBS pH 7.4 containing 50 mM EDTA, 1 mM cold ATP, 0.1% Triton X100 and 10 mg/ml streptavidin coated SPA beads.
After 20 min incubation, 110 µL of suspension were withdrawn and transferred into 96-well OPTIPLATEs containing 100 µl of 5M CsCl. After 4 hours, the plates were read for 2 min in a Packard TOP-Count radioactivity reader.
IC50 determination: see above.

PAK4 = PAK4 (Homo sapiens, UniProt O96013); assay: PAK4 inhibition
cdk2/Cyclin A = cdk2/Cyclin A (Homo sapiens, UniProt P24941); assay: Inhibition assay of cdk2/Cyclin A activity (SPA); settings: 10 µM ATP, 60 min at room temperature
Procedure: as §1, §2
Inhibition assay of cdk2/Cyclin A activity
Kinase reaction: 4 µM in house biotinylated histone H1 (Sigma # H-5505) substrate, 10 µM ATP (0.1 microCi P^33γ-ATP), 1.1 nM Cyclin A/CDK2 complex, inhibitor in a final volume of 30 µl buffer (TRIS HCl 10 mM pH 7.5, MgCl2 10 mM, DTT 7.5 mM + 0.2 mg/ml BSA) were added to each well of a 96 U bottom. After incubation for 60 min at room temperature, the reaction was stopped by addition of 100 µl PBS buffer containing 32 mM EDTA, 500 µM cold ATP, 0.1% Triton X100 and 10mg/ml streptavidin coated SPA beads. After 20 min incubation, 110 µL of suspension were withdrawn and transferred into 96-well OPTIPLATEs containing 100 µl of 5M CsCl. After 4 hours, the plates were read for 2 min in a Packard TOP-Count radioactivity reader.
as §3

Cdc7/dbf4, sequence (O00311 whole entry, species assumed): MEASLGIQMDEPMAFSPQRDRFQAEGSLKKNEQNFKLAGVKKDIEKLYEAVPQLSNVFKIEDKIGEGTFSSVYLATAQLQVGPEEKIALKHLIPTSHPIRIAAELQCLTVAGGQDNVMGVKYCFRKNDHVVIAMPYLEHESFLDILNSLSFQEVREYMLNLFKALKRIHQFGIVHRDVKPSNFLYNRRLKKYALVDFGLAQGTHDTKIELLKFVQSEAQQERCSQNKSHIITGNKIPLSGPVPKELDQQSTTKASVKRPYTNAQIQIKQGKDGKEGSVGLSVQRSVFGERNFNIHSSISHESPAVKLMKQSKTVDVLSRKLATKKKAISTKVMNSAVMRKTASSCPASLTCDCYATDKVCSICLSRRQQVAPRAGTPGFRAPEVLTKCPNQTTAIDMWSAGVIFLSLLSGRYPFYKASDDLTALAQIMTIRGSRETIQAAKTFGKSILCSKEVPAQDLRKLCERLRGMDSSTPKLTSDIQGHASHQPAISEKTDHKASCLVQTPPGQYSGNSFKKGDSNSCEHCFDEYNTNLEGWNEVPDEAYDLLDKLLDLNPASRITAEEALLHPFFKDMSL
Cdc7/dbf4, sequence (Q9UBU7 whole entry partner, species assumed): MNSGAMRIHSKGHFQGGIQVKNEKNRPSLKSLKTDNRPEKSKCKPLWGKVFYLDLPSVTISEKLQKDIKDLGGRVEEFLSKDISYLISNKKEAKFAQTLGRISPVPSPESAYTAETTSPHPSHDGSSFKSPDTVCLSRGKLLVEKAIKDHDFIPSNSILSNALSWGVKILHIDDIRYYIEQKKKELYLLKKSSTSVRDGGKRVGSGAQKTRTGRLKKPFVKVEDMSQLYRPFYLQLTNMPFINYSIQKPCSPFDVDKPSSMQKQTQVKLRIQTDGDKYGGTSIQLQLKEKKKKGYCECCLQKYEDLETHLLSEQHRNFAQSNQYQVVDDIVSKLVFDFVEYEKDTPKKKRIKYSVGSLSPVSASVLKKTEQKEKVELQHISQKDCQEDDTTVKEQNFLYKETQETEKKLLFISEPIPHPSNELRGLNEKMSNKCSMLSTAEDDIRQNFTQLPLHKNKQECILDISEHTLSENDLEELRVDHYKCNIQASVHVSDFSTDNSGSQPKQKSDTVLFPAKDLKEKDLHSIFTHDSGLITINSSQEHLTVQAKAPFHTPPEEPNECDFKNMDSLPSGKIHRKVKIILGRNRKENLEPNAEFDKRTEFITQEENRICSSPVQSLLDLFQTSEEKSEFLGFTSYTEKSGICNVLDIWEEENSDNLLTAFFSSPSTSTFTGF
PAK4, sequence (O96013 whole entry, species assumed): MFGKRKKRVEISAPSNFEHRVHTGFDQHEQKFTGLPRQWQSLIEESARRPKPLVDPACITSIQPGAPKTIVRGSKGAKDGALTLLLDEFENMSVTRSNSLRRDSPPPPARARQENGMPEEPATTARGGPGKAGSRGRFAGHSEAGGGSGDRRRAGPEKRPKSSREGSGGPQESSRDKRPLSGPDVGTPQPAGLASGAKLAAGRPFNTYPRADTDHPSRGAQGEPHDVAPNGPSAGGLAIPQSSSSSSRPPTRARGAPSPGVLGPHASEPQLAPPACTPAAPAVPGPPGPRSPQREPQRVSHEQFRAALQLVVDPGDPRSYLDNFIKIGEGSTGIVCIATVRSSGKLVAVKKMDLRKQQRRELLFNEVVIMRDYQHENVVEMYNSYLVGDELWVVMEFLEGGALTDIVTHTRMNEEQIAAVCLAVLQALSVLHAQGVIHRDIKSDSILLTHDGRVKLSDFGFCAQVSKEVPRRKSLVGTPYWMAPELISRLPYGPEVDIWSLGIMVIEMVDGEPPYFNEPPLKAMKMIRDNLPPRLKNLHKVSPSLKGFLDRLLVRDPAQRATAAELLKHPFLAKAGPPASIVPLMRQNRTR

IC50 (Aurora-2) [nM]	IC50 (Cdc7/dbf4) [nM]	IC50 (PAK4) [nM]	IC50 (cdk2/Cyclin A) [nM]	Structure (SMILES)
< 100	< 1000	< 500		CN1CCN(c2ccc(C(=O)Nc3n[nH]c4cc(C(=O)NCc5ccc(F)cc5)sc34)cc2)CC1 [Compound 95, N-(4-fluorobenzyl)-3-{[4-(4-methylpiperazin-1-yl)benzoyl]amino}-1H-thieno[3,2-c]pyrazole-5-carboxamide]
< 100	< 1000	< 500		CN1CCN(c2ccc(C(=O)Nc3n[nH]c4cc(C(=O)NCc5ccccc5F)sc34)cc2)CC1 [Compound 101, N-(2-fluorobenzyl)-3-{[4-(4-methylpiperazin-1-yl)benzoyl]amino}-1H-thieno[3,2-c]pyrazole-5-carboxamide]
< 100	< 1000			CN1CCN(c2ccc(C(=O)Nc3n[nH]c4cc(C(=O)NCc5cccn5C)sc34)cc2)CC1 [Compound 123, 3-{[4-(4-methylpiperazin-1-yl)benzoyl]amino}-N-[(1-methyl-1H-pyrrol-2-yl)methyl]-1H-thieno[3,2-c]pyrazole-5-carboxamide]
< 100	< 1000		< 500	CN1CCN(c2ccc(C(=O)Nc3n[nH]c4cc(C(=O)NCc5ccoc5)sc34)cc2)CC1 [Compound 124, N-(3-furylmethyl)-3-{[4-(4-methylpiperazin-1-yl)benzoyl]amino}-1H-thieno[3,2-c]pyrazole-5-carboxamide]
< 100	< 1000	< 500		CN1CCN(c2ccc(C(=O)Nc3n[nH]c4cc(C(=O)NCc5cccs5)sc34)cc2)CC1 [Compound 115, 3-{[4-(4-methylpiperazin-1-yl)benzoyl]amino}-N-(thien-2-ylmethyl)-1H-thieno[3,2-c]pyrazole-5-carboxamide]
	< 1000	< 500	< 500	CCNC(=O)c1cc2[nH]nc(NC(=O)c3ccc(N4CCN(C)CC4)cc3)c2s1 [Compound 93, N-ethyl-3-{[4-(4-methylpiperazin-1-yl)benzoyl]amino}-1H-thieno[3,2-c]pyrazole-5-carboxamide dihydrochloride]
< 100	< 1000	< 500	< 500	CN1CCN(c2ccc(C(=O)Nc3n[nH]c4cc(C(=O)NCc5ccco5)sc34)cc2)CC1 [Compound 114, N-(2-furylmethyl)-3-{[4-(4-methylpiperazin-1-yl)benzoyl]amino}-1H-thieno[3,2-c]pyrazole-5-carboxamide]

More lines, now with the values behind:

Structure (SMILES)	IC50 (Aurora-2) [nM]	IC50 (Cdc7/dbf4) [nM]	IC50 (PAK4) [nM]	IC50 (cdk2/Cyclin A) [nM]
CCC(NC(=O)c1cc2[nH]nc(NC(=O)c3ccc(N4CCOCC4)cc3)c2o1)c1ccccc1 (stereo not drawn) [Compound 164, 3-[(4-morpholin-4-ylbenzoyl)amino]-N-[-1-phenylpropyl]-1H-furo[3,2-c]pyrazole-5-carboxamide]	< 100		< 500	< 500
O=C(Nc1n[nH]c2cc(C(=O)O)sc12)c1ccc(N2CCOCC2)cc1 [Compound 57, 3-[(4-morpholin-4-ylbenzoyl)amino]-1H-thieno[3,2-c]pyrazole-5-carboxylic acid]	< 100	< 1000		< 500
CCC(NC(=O)c1cc2[nH]nc(NC(=O)c3ccc(N4CCN(C)CC4)cc3)c2o1)c1ccccc1 (stereo not drawn) [Compound 165, 3-{[4-(4-methylpiperazin-1-yl)benzoyl]amino}-N-[1-phenylpropyl]-1H-furo[3,2-c]pyrazole-5-carboxamide]	< 100	< 1000		< 500
CN1CCN(c2ccc(C(=O)Nc3n[nH]c4cc(C(=O)O)oc34)cc2)CC1 [Compound 162, 3-{[4-(4-methylpiperazin-1-yl)benzoyl]amino}-1H-furo[3,2-c]pyrazole-5-carboxylic acid]	< 100	< 1000		
COC(=O)c1cc2[nH]nc(NC(=O)c3ccc(N4CCOCC4)cc3)c2s1 [Compound 52, methyl 3-[(4-morpholin-4-ylbenzoyl)amino]-1H-thieno[3,2-c]pyrazole-5-carboxylate]	< 100	< 1000	< 500	
O=C(Nc1n[nH]c2cc(C(=O)O)oc12)c1ccc(N2CCOCC2)cc1 [Compound 161, 3-[(4-morpholin-4-ylbenzoyl)amino]-1H-furo[3,2-c]pyrazole-5-carboxylic acid]	< 100	< 1000		< 500
CN1CCN(c2ccc(C(=O)Nc3n[nH]c4cc(C(=O)NCc5ccc(F)cc5F)sc34)cc2)CC1 [Compound 102, N-(2,4-difluorobenzyl)-3-{[4-(4-methylpiperazin-1-yl)benzoyl]amino}-1H-thieno[3,2-c]pyrazole-5-carboxamide]	< 100	< 1000	< 500	
COC[C@@H](NC(=O)c1cc2[nH]nc(NC(=O)c3ccc(N4CCOCC4)cc3)c2s1)c1ccccc1 [Compound 129, N-[(1S)-2-methoxy-1-phenylethyl]-3-[(4-morpholin-4-ylbenzoyl)amino]-1H-thieno[3,2-c]pyrazole-5-carboxamide]	< 100		< 500	
CC[C@@H](NC(=O)c1cc2[nH]nc(NC(=O)c3ccc(N4CCOCC4)cc3)c2s1)c1ccccc1 [Compound 131, 3-[(4-morpholin-4-ylbenzoyl)amino]-N-[(1R)-1-phenylpropyl]-1H-thieno[3,2-c]pyrazole-5-carboxamide]	< 100		< 500	
